{"source": "PubChem BioAssay AID2060887", "about": "(Molecular Pharmacology Branch, DTP, NCI, 2025);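 note: spheroids exposed to compounds for 7 days before reading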;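 for viability, T/C: 100% = DMSO vehicle control viability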", "tested_on": "782815-120-R-J1-PDC complex spheroid viability", "assay": "Anticancer human tumor 782815-120-R-J1-PDC patient-derived colon adenocarcinoma cell line growth inhibition [RAS]", "settings": "for IC50: curve of first compound; for viability, T/C: stronger effect = lower value", "method_in_brief": "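Tumour cells grown as complex spheroids with HUVEC endothelial cells and mesenchymal stem cells, treated with RAS pathway inhibitor combinations. Each agent spans half-log steps from near clinical Cmax, or 10 microM where Cmax is unknown.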", "key": {"[1]": {"settings": "second compound 0.00316 µM, first compound 0.0316 µM"}, "[2]": {"settings": "second compound 0.00316 µM, first compound 0.1 µM"}, "[3]": {"settings": "second compound 0.01 µM, first compound 0.0316 µM"}, "[4]": {"settings": "second compound 0.01 µM, first compound 0.1 µM"}, "[5]": {"settings": "second compound 0.0316 µM, first compound 0.0316 µM"}, "[6]": {"settings": "second compound 0.0316 µM, first compound 0.1 µM"}, "[7]": {"settings": "second compound 0.1 µM, first compound 0.0316 µM"}, "[8]": {"settings": "second compound 0.1 µM, first compound 0.1 µM"}, "[9]": {"settings": "second compound 0.316 µM, first compound 0.0316 µM"}, "[10]": {"settings": "second compound 0.316 µM, first compound 0.1 µM"}, "[11]": {"settings": "second compound 1 µM, first compound 0.0316 µM"}, "[12]": {"settings": "second compound 1 µM, first compound 0.1 µM"}}, "data": [{"smiles": "CC(C)NCC(C(=O)N1CCN(c2ncnc3c2C(C)CC3O)CC1)c1ccc(Cl)cc1", "note": "(centres undefined) + C=CC(=O)N1CCN(c2nc(OCC3CCCN3C)nc3c(F)c(-c4nc(N)cc(C)c4C(F)(F)F)c(Cl)cc23)C(C)C1", "values": [{"measurement": "IC50", "setting": "second compound 0.00316 µM", "value": "> 10", "unit": "µM"}, {"measurement": "IC50", "setting": "second compound 0.01 µM", "value": "> 10", "unit": "µM"}, {"measurement": "IC50", "setting": "second compound 0.0316 µM", "value": "> 10", "unit": "µM"}, {"measurement": "IC50", "setting": "second compound 0.1 µM", "value": "> 10", "unit": "µM"}, {"measurement": "IC50", "setting": "second compound 0.316 µM", "value": "> 10", "unit": "µM"}, {"measurement": "IC50", "setting": "second compound 1 µM", "value": "> 10", "unit": "µM"}, {"measurement": "viability, T/C", "setting": "[1]", "value": 98.4, "unit": "%"}, {"measurement": "viability, T/C", "setting": "[2]", "value": 97, "unit": "%"}, {"measurement": "viability, T/C", "setting": "second compound 0.00316 µM, first compound 0.316 µM", "value": 102, "unit": "%"}, {"measurement": "viability, T/C", "setting": "second compound 0.00316 µM, first compound 1 µM", "value": 92, "unit": "%"}, {"measurement": "viability, T/C", "setting": "second compound 0.00316 µM, first compound 3.16 µM", "value": 99, "unit": "%"}, {"measurement": "viability, T/C", "setting": "second compound 0.00316 µM, first compound 10 µM", "value": 98.7, "unit": "%"}, {"measurement": "viability, T/C", "setting": "[3]", "value": 101, "unit": "%"}, {"measurement": "viability, T/C", "setting": "[4]", "value": 93.3, "unit": "%"}, {"measurement": "viability, T/C", "setting": "second compound 0.01 µM, first compound 0.316 µM", "value": 91.1, "unit": "%"}, {"measurement": "viability, T/C", "setting": "second compound 0.01 µM, first compound 1 µM", "value": 93.2, "unit": "%"}, {"measurement": "viability, T/C", "setting": "second compound 0.01 µM, first compound 3.16 µM", "value": 101, "unit": "%"}, {"measurement": "viability, T/C", "setting": "second compound 0.01 µM, first compound 10 µM", "value": 96.9, "unit": "%"}, {"measurement": "viability, T/C", "setting": "[5]", "value": 96.2, "unit": "%"}, {"measurement": "viability, T/C", "setting": "[6]", "value": 96.8, "unit": "%"}, {"measurement": "viability, T/C", "setting": "second compound 0.0316 µM, first compound 0.316 µM", "value": 94.3, "unit": "%"}, {"measurement": "viability, T/C", "setting": "second compound 0.0316 µM, first compound 1 µM", "value": 87.9, "unit": "%"}, {"measurement": "viability, T/C", "setting": "second compound 0.0316 µM, first compound 3.16 µM", "value": 96.3, "unit": "%"}, {"measurement": "viability, T/C", "setting": "second compound 0.0316 µM, first compound 10 µM", "value": 101, "unit": "%"}, {"measurement": "viability, T/C", "setting": "[7]", "value": 104, "unit": "%"}, {"measurement": "viability, T/C", "setting": "[8]", "value": 95.2, "unit": "%"}, {"measurement": "viability, T/C", "setting": "second compound 0.1 µM, first compound 0.316 µM", "value": 96.4, "unit": "%"}, {"measurement": "viability, T/C", "setting": "second compound 0.1 µM, first compound 1 µM", "value": 94.5, "unit": "%"}, {"measurement": "viability, T/C", "setting": "second compound 0.1 µM, first compound 3.16 µM", "value": 95.9, "unit": "%"}, {"measurement": "viability, T/C", "setting": "second compound 0.1 µM, first compound 10 µM", "value": 104, "unit": "%"}, {"measurement": "viability, T/C", "setting": "[9]", "value": 106, "unit": "%"}, {"measurement": "viability, T/C", "setting": "[10]", "value": 93.4, "unit": "%"}, {"measurement": "viability, T/C", "setting": "second compound 0.316 µM, first compound 0.316 µM", "value": 93, "unit": "%"}, {"measurement": "viability, T/C", "setting": "second compound 0.316 µM, first compound 1 µM", "value": 88.5, "unit": "%"}, {"measurement": "viability, T/C", "setting": "second compound 0.316 µM, first compound 3.16 µM", "value": 96.7, "unit": "%"}, {"measurement": "viability, T/C", "setting": "second compound 0.316 µM, first compound 10 µM", "value": 92.6, "unit": "%"}, {"measurement": "viability, T/C", "setting": "[11]", "value": 105, "unit": "%"}, {"measurement": "viability, T/C", "setting": "[12]", "value": 100, "unit": "%"}, {"measurement": "viability, T/C", "setting": "second compound 1 µM, first compound 0.316 µM", "value": 92.5, "unit": "%"}, {"measurement": "viability, T/C", "setting": "second compound 1 µM, first compound 1 µM", "value": 98.9, "unit": "%"}, {"measurement": "viability, T/C", "setting": "second compound 1 µM, first compound 3.16 µM", "value": 103, "unit": "%"}, {"measurement": "viability, T/C", "setting": "second compound 1 µM, first compound 10 µM", "value": 99.1, "unit": "%"}]}, {"smiles": "CC(C)n1nc(-c2ccc3oc(N)nc3c2)c2c(N)ncnc21", "note": "+ C=CC(=O)N1CCN(c2nc(OCC3CCCN3C)nc3c(F)c(-c4nc(N)cc(C)c4C(F)(F)F)c(Cl)cc23)C(C)C1", "values": [{"measurement": "IC50", "setting": "second compound 0.00316 µM", "value": "> 0.1", "unit": "µM"}, {"measurement": "IC50", "setting": "second compound 0.01 µM", "value": "> 0.1", "unit": "µM"}, {"measurement": "IC50", "setting": "second compound 0.0316 µM", "value": "> 0.1", "unit": "µM"}, {"measurement": "IC50", "setting": "second compound 0.1 µM", "value": "> 0.1", "unit": "µM"}, {"measurement": "IC50", "setting": "second compound 0.316 µM", "value": "> 0.1", "unit": "µM"}, {"measurement": "IC50", "setting": "second compound 1 µM", "value": "> 0.1", "unit": "µM"}, {"measurement": "viability, T/C", "setting": "second compound 0.00316 µM, first compound 0.000316 µM", "value": 101, "unit": "%"}, {"measurement": "viability, T/C", "setting": "second compound 0.00316 µM, first compound 0.001 µM", "value": 101, "unit": "%"}, {"measurement": "viability, T/C", "setting": "second compound 0.00316 µM, first compound 0.00316 µM", "value": 96.1, "unit": "%"}, {"measurement": "viability, T/C", "setting": "second compound 0.00316 µM, first compound 0.01 µM", "value": 91.7, "unit": "%"}, {"measurement": "viability, T/C", "setting": "[1]", "value": 90.2, "unit": "%"}, {"measurement": "viability, T/C", "setting": "[2]", "value": 93.1, "unit": "%"}, {"measurement": "viability, T/C", "setting": "second compound 0.01 µM, first compound 0.000316 µM", "value": 99.8, "unit": "%"}, {"measurement": "viability, T/C", "setting": "second compound 0.01 µM, first compound 0.001 µM", "value": 95.9, "unit": "%"}, {"measurement": "viability, T/C", "setting": "second compound 0.01 µM, first compound 0.00316 µM", "value": 100, "unit": "%"}, {"measurement": "viability, T/C", "setting": "second compound 0.01 µM, first compound 0.01 µM", "value": 89.1, "unit": "%"}, {"measurement": "viability, T/C", "setting": "[3]", "value": 92.7, "unit": "%"}, {"measurement": "viability, T/C", "setting": "[4]", "value": 95.5, "unit": "%"}, {"measurement": "viability, T/C", "setting": "second compound 0.0316 µM, first compound 0.000316 µM", "value": 101, "unit": "%"}, {"measurement": "viability, T/C", "setting": "second compound 0.0316 µM, first compound 0.001 µM", "value": 102, "unit": "%"}, {"measurement": "viability, T/C", "setting": "second compound 0.0316 µM, first compound 0.00316 µM", "value": 98.7, "unit": "%"}, {"measurement": "viability, T/C", "setting": "second compound 0.0316 µM, first compound 0.01 µM", "value": 95.8, "unit": "%"}, {"measurement": "viability, T/C", "setting": "[5]", "value": 92.2, "unit": "%"}, {"measurement": "viability, T/C", "setting": "[6]", "value": 91.4, "unit": "%"}, {"measurement": "viability, T/C", "setting": "second compound 0.1 µM, first compound 0.000316 µM", "value": 98.7, "unit": "%"}, {"measurement": "viability, T/C", "setting": "second compound 0.1 µM, first compound 0.001 µM", "value": 102, "unit": "%"}, {"measurement": "viability, T/C", "setting": "second compound 0.1 µM, first compound 0.00316 µM", "value": 91.3, "unit": "%"}, {"measurement": "viability, T/C", "setting": "second compound 0.1 µM, first compound 0.01 µM", "value": 92.1, "unit": "%"}, {"measurement": "viability, T/C", "setting": "[7]", "value": 105, "unit": "%"}, {"measurement": "viability, T/C", "setting": "[8]", "value": 92.6, "unit": "%"}, {"measurement": "viability, T/C", "setting": "second compound 0.316 µM, first compound 0.000316 µM", "value": 97.5, "unit": "%"}, {"measurement": "viability, T/C", "setting": "second compound 0.316 µM, first compound 0.001 µM", "value": 105, "unit": "%"}, {"measurement": "viability, T/C", "setting": "second compound 0.316 µM, first compound 0.00316 µM", "value": 95.1, "unit": "%"}, {"measurement": "viability, T/C", "setting": "second compound 0.316 µM, first compound 0.01 µM", "value": 102, "unit": "%"}, {"measurement": "viability, T/C", "setting": "[9]", "value": 92.8, "unit": "%"}, {"measurement": "viability, T/C", "setting": "[10]", "value": 94.7, "unit": "%"}, {"measurement": "viability, T/C", "setting": "second compound 1 µM, first compound 0.000316 µM", "value": 104, "unit": "%"}, {"measurement": "viability, T/C", "setting": "second compound 1 µM, first compound 0.001 µM", "value": 104, "unit": "%"}, {"measurement": "viability, T/C", "setting": "second compound 1 µM, first compound 0.00316 µM", "value": 91.5, "unit": "%"}, {"measurement": "viability, T/C", "setting": "second compound 1 µM, first compound 0.01 µM", "value": 96.9, "unit": "%"}, {"measurement": "viability, T/C", "setting": "[11]", "value": 94.1, "unit": "%"}, {"measurement": "viability, T/C", "setting": "[12]", "value": 87.7, "unit": "%"}]}]}
